Assay results taken from paper PMC7413254 (Nature Communications, 2020).
Where two headings read alike, the source gives them in different places.

Assays:
non-expressing oocytes [1] = experiment: cells; type: cell-based, Xenopus laevis; details: Xenopus laevis, total [3H]CQ transport; for inhibition at 500 µM: [test solute] = 0.5 mM; for inhibition at 1000 µM: [test solute] = 1 mM; for inhibition at 2000 µM: [test solute] = 2 mM
Outline: (§1)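 Each treatment used ten oocytes, repeated in at least four experiments on different days with oocytes from different frogs. Conditions: ND96 pH 5.5, 27.5 °C, 1.5 h; read-out by scintillation counting.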

PfCRT^3D7 [2] = molecular target: T1, PfCRT^3D7 (Plasmodium falciparum, UniProt Q8IBZ9); experiment: cell-based; type: cell-based; details: total [3H]CQ transport; for inhibition at 500 µM: [test solute] = 0.5 mM; for inhibition at 1000 µM: [test solute] = 1 mM; for inhibition at 2000 µM: [test solute] = 2 mM
T1 sequence (Q8IBZ9 59-398): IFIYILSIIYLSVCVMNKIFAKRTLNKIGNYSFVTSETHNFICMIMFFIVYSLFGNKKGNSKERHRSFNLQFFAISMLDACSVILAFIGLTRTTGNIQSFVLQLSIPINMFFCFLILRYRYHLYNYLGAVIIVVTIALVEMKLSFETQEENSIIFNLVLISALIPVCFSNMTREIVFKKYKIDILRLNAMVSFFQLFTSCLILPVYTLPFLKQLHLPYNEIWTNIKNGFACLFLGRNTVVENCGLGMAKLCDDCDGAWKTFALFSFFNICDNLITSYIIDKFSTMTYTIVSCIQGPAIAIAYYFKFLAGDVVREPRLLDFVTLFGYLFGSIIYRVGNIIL
Outline: as §1

PfCRT^Dd2 [3] = molecular target: T2, PfCRT^Dd2 (Plasmodium falciparum, UniProt Q9N623, A220S/I356T/K76T/M74I/N326S/N75E/Q271E/R371I); experiment: [3H]CQ uptake into Xenopus oocytes, cis-inhibition by unlabelled solute; type: cell-based
T2 sequence (Q9N623 whole entry A220S/I356T/K76T/M74I/N326S/N75E/Q271E/R371I): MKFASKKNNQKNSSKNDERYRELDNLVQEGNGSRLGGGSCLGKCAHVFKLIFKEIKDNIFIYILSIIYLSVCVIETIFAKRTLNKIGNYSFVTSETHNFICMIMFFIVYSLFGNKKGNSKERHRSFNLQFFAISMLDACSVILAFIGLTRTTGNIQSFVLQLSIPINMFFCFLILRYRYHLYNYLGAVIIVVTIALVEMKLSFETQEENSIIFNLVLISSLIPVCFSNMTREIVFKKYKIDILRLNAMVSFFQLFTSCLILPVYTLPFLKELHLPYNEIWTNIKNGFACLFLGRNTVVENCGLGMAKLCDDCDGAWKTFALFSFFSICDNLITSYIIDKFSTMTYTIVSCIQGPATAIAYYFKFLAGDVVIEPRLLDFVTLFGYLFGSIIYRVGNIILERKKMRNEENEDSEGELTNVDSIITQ
Outline: as §1

PfCRT^Ecu1110 [4] = molecular target: T3, PfCRT^Ecu1110 (Plasmodium falciparum, UniProt Q9N623, A220S/I356L/K76T/N326D); experiment: as above; type: cell-based
T3 sequence (Q9N623 whole entry A220S/I356L/K76T/N326D): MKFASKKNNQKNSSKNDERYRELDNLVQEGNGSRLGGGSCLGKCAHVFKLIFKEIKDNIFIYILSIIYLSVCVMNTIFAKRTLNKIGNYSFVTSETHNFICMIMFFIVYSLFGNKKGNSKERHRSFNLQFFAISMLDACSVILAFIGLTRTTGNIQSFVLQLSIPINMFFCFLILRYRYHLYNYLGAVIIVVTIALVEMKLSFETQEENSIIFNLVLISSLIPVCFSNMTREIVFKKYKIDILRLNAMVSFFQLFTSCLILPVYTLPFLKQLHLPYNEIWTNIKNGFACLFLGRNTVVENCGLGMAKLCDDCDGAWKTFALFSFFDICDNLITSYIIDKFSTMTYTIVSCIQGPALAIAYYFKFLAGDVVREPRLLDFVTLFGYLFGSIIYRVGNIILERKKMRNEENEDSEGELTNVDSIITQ
Outline: as §1

non-expressing oocytes [5] = type: cell-based, Xenopus laevis; details: total [3H]CQ transport; for Uptake of [3H]CQ (% non-expressing oocyte control), trans-stimulation: non-expressing oocytes, normalised to the oocyte type control; for Uptake of [3H]CQ (% PfCRTDd2 control), trans-stimulation, non-expressing oocytes: mean ± SEM, SEM
Outline: (§2)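 Oocytes (ten per treatment, ≥4 independent frogs/days) were preloaded by injecting VF-6 in 25 nL ND96 at pH 5.0, 5.5, 6.0 or 7.0, or Na^+-free choline buffer, then uptake run 1.5 h, 27.5 °C, ND96 pH 5.5 by default. Internal concentrations assumed ~400 nL oocyte volume.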

PfCRT^3D7 [6] = molecular target: T1, PfCRT^3D7; experiment: cell-based; type: cell-based
Outline: as §2

PfCRT^Dd2 [7] = molecular target: T2, PfCRT^Dd2; experiment: cell-based; type: cell-based; details: […]; for activity at 45000 µM: [test solute]i = 45 mM (30 mM for some solutes due to solubility)
Outline: as §2

PfCRT^Ecu1110 [8] = molecular target: T3, PfCRT^Ecu1110; experiment: cell-based; type: cell-based; details: […]
Outline: as §2

PfNT1 = molecular target: T4, PfNT1 (Plasmodium falciparum, UniProt Q8IDM6); experiment: cell-based; type: cell-based; details: for activity at 5000 µM: total [3H]CQ transport
T4 construct: expressed in transfected cells; host or cells: Xenopus laevis oocytes (stage V-VI), cRNA-injected
T4 sequence (Q8IDM6 whole entry): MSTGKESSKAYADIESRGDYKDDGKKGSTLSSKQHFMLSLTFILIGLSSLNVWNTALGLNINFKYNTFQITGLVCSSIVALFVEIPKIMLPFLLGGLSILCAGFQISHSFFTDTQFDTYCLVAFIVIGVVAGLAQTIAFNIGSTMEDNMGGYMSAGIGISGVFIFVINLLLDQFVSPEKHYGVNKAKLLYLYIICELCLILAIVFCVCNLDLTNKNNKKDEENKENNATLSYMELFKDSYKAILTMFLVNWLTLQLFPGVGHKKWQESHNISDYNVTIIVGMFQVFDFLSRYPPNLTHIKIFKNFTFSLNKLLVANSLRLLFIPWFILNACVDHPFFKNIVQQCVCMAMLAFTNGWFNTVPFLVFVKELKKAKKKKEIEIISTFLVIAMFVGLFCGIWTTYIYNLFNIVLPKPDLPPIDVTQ
Outline: as §2

PfCRT [9] = experiment: Test of solutes as potential co-substrates for influx of VF-6 via PfCRT into the oocyte; type: cell-based, Plasmodium falciparum; parameters: key: X: Compounds that have been tested as potential co-substrates but are not required for influx of VF-6 via PfCRT into the oocyte; details: X = tested
PfCRT [10] = experiment: Potential co-substrates tested for influx of VF-6 via PfCRT into the oocyte; type: cell-based, Plasmodium falciparum; parameters: key: X: Compounds that have been tested as potential co-substrates but are not required for influx of VF-6 via PfCRT into the oocyte
[11] = Oocyte, mean ± SEM, SEM, read-out: Uptake of [3H]CQ (% PfCRTDd2 control), cis-inhibition, non-expressing oocytes
[12] = non-expressing oocytes, normalised to the oocyte type control, read-out: Uptake of [3H]CQ (% non-expressing oocyte control), cis-inhibition
[13] = PfCRT3D7 oocytes, normalised to the oocyte type control, read-out: Uptake of [3H]CQ (% PfCRT3D7 control), cis-inhibition
[14] = mean ± SEM, SEM, read-out: Uptake of [3H]CQ (% PfCRTDd2 control), cis-inhibition, PfCRT3D7
[15] = read-out: PfCRT-mediated [3H]CQ transport, cis-inhibition (% PfCRTDd2 control)
[16] = read-out: Uptake of [3H]CQ (% PfCRTDd2 control), cis-inhibition, PfCRTDd2, SEM
[17] = read-out: PfCRT-mediated [3H]CQ transport, cis-inhibition (% PfCRTEcu1110 control)
[18] = read-out: Uptake of [3H]CQ (% PfCRTDd2 control), cis-inhibition, PfCRTEcu1110, SEM
[19] = read-out: Uptake of [3H]CQ (% PfCRTEcu1110 control), cis-inhibition
[20] = read-out: [3H]CQ transport (% PfCRTEcu1110 control), cis-inhibition, PfCRTEcu1110, SEM

CC[C@H](C)[C@H](N)C(=O)O [L-isoleucine]
inhibition at 500 µM (non-expressing oocytes [1]; [11]): 2.7 ± 0.08%
inhibition at 1000 µM (non-expressing oocytes [1]; [11]): 3.3 ± 0.03%
inhibition at 2000 µM (non-expressing oocytes [1]; [11]): 2.4 ± 0.07%
inhibition at 500 µM (non-expressing oocytes [1]; [12]): 94 ± 7.5%
inhibition at 1000 µM (non-expressing oocytes [1]; [12]): 100 ± 4.5%
inhibition at 2000 µM (non-expressing oocytes [1]; [12]): 101 ± 3.2%
inhibition at 500 µM (PfCRT^3D7 [2]; [13]): 99 ± 4.7%
inhibition at 1000 µM (PfCRT^3D7 [2]; [13]): 98 ± 5.7%
inhibition at 2000 µM (PfCRT^3D7 [2]; [13]): 102 ± 4.7%
inhibition at 500 µM (PfCRT^3D7 [2]; [14]): 3.1 ± 0.07%
inhibition at 1000 µM (PfCRT^3D7 [2]; [14]): 2.8 ± 0.04%
inhibition at 2000 µM (PfCRT^3D7 [2]; [14]): 2.8 ± 0.02%
inhibition at 500 µM (PfCRT^Dd2 [3]; [15]): 95 ± 5.1%
inhibition at 2000 µM (PfCRT^Dd2 [3]; [15]): 96 ± 3.7%
inhibition at 500 µM (PfCRT^Dd2 [3]; [16]): 97 ± 4.9%
inhibition at 1000 µM (PfCRT^Dd2 [3]; [16]): 100 ± 6.5%
inhibition at 2000 µM (PfCRT^Dd2 [3]; [16]): 98 ± 6.2%
inhibition at 500 µM (PfCRT^Ecu1110 [4]; [17]): 93 ± 5.9%
inhibition at 1000 µM (PfCRT^Ecu1110 [4]; [17]): 98 ± 4.1%
inhibition at 2000 µM (PfCRT^Ecu1110 [4]; [17]): 98 ± 5.2%
inhibition at 500 µM (PfCRT^Ecu1110 [4]; [18]): 31 ± 1.7%
inhibition at 1000 µM (PfCRT^Ecu1110 [4]; [18]): 33 ± 1.8%
inhibition at 2000 µM (PfCRT^Ecu1110 [4]; [18]): 33 ± 1.5%
inhibition at 500 µM (PfCRT^Ecu1110 [4]; [19]): 96 ± 6.9%
inhibition at 1000 µM (PfCRT^Ecu1110 [4]; [19]): 100 ± 6.9%
inhibition at 2000 µM (PfCRT^Ecu1110 [4]; [19]): 101 ± 9.5%
inhibition at 500 µM (PfCRT^Ecu1110 [4]; [20]): 28 ± 0.3%
inhibition at 1000 µM (PfCRT^Ecu1110 [4]; [20]): 30 ± 0.6%
inhibition at 2000 µM (PfCRT^Ecu1110 [4]; [20]): 30 ± 0.5%
Uptake of [3H]CQ (% non-expressing oocyte control), trans-stimulation (non-expressing oocytes [5]; [test solute]i = 5 mM): 97 ± 1.3 % non-expressing oocyte control
Uptake of [3H]CQ (% non-expressing oocyte control), trans-stimulation (non-expressing oocytes [5]; [test solute]i = 45 mM (30 mM for some solutes due to solubility)): 100 ± 2.7 % non-expressing oocyte control
Uptake of [3H]CQ (% PfCRTDd2 control), trans-stimulation, non-expressing oocytes (non-expressing oocytes [5]; [test solute]i = 5 mM (intracellular)): 3.2 ± 0.06 % PfCRTDd2 control
Uptake of [3H]CQ (% PfCRTDd2 control), trans-stimulation, non-expressing oocytes (non-expressing oocytes [5]; [test solute]i = 45 mM (intracellular; 30 mM for some solutes due to solubility)): 2.5 ± 0.05 % PfCRTDd2 control
activity at 5000 µM (PfCRT^3D7 [6]; PfCRT3D7 oocytes, [test solute]i = 5 mM, total [3H]CQ transport, normalised to the oocyte type control, read-out: Uptake of [3H]CQ (% PfCRT3D7 control), trans-stimulation): 100 ± 3.6%
[3H]CQ transport (% PfCRT3D7 control), trans-stimulation, PfCRT3D7 (PfCRT^3D7 [6]; SEM): 0.3 ± 0.02 % PfCRT3D7 control
activity at 5000 µM (PfCRT^3D7 [6]; [test solute]i = 5 mM (intracellular), PfCRT3D7 oocytes, normalised to oocyte type control, read-out: PfCRT-mediated [3H]CQ transport, trans-stimulation (% PfCRT3D7 control)): 98 ± 4.1%
activity at 45000 µM (PfCRT^3D7 [6]; SEM, read-out: Uptake of [3H]CQ (% PfCRTDd2 control), trans-stimulation, PfCRT3D7): 3.3 ± 0.01%
activity at 45000 µM (PfCRT^3D7 [6]; read-out: PfCRT-mediated [3H]CQ transport, trans-stimulation (% PfCRT3D7 control)): 96 ± 3.5%
activity at 45000 µM (PfCRT^3D7 [6]; read-out: Uptake of [3H]CQ (% PfCRT3D7 control), trans-stimulation): 98 ± 4.3%
activity at 5000 µM (PfCRT^3D7 [6]; total [3H]CQ transport, [test solute]i = 5 mM (intracellular), mean ± SEM, SEM, read-out: Uptake of [3H]CQ (% PfCRTDd2 control), trans-stimulation, PfCRT3D7): 3.3 ± 0.02%
activity at 5000 µM (PfCRT^Dd2 [7]; pH 5.5, read-out: PfCRT-mediated [3H]CQ transport, trans-stimulation (% PfCRTDd2 control), [test solute]i = 5 mM (intracellular), PfCRTDd2 oocytes, normalised to oocyte type control): 94 ± 5.1%
activity at 5000 µM (PfCRT^Dd2 [7]; pH 5.5, read-out: Uptake of [3H]CQ (% PfCRTDd2 control), trans-stimulation, PfCRTDd2, total [3H]CQ transport, [test solute]i = 5 mM (intracellular), mean ± SEM, SEM): 96 ± 4.4%
activity at 5000 µM (PfCRT^Dd2 [7]; pH 5.5, read-out: Uptake of [3H]CQ (% PfCRTDd2 control), trans-stimulation, PfCRTDd2 oocytes, [test solute]i = 5 mM, total [3H]CQ transport, normalised to the oocyte type control): 96 ± 4.4%
activity at 45000 µM (PfCRT^Dd2 [7]; pH 5.5, read-out: Uptake of [3H]CQ (% PfCRTDd2 control), trans-stimulation, PfCRTDd2 oocytes, total [3H]CQ transport, normalised to the oocyte type control): 100 ± 2.2%
activity at 5000 µM (PfCRT^Dd2 [7]; pH 5.5, read-out: [3H]CQ transport (% PfCRTDd2 control), trans-stimulation, PfCRTDd2, trans-stimulation, [test solute]i = 5 mM (injected), PfCRT-mediated component (background subtracted), mean ± SEM, SEM): 94 ± 5.1%
activity at 45000 µM (PfCRT^Dd2 [7]; pH 5.5, read-out: [3H]CQ transport (% PfCRTDd2 control), trans-stimulation, PfCRTDd2, trans-stimulation, PfCRT-mediated component (background subtracted), mean ± SEM, SEM): 98 ± 3.6%
activity at 5000 µM (PfCRT^Ecu1110 [8]; pH 5.5, read-out: PfCRT-mediated [3H]CQ transport, trans-stimulation (% PfCRTEcu1110 control), [test solute]i = 5 mM (intracellular), PfCRTEcu1110 oocytes, normalised to oocyte type control): 97 ± 2.1%
activity at 5000 µM (PfCRT^Ecu1110 [8]; pH 5.5, read-out: Uptake of [3H]CQ (% PfCRTEcu1110 control), trans-stimulation, PfCRTEcu1110 oocytes, [test solute]i = 5 mM, total [3H]CQ transport, normalised to the oocyte type control): 99 ± 3.5%
activity at 45000 µM (PfCRT^Ecu1110 [8]; pH 5.5, read-out: Uptake of [3H]CQ (% PfCRTEcu1110 control), trans-stimulation, PfCRTEcu1110 oocytes, [test solute]i = 45 mM (30 mM for some solutes due to solubility), total [3H]CQ transport, normalised to the oocyte type control): 99 ± 3.2%
activity at 5000 µM (PfCRT^Ecu1110 [8]; read-out: Uptake of [3H]CQ (% PfCRTDd2 control), trans-stimulation, PfCRTEcu1110, total [3H]CQ transport, [test solute]i = 5 mM (intracellular), mean ± SEM, SEM): 35 ± 1.5%
activity at 45000 µM (PfCRT^Ecu1110 [8]; read-out: Uptake of [3H]CQ (% PfCRTDd2 control), trans-stimulation, PfCRTEcu1110, total [3H]CQ transport, [test solute]i = 45 mM (intracellular; 30 mM for some solutes due to solubility), mean ± SEM, SEM): 35 ± 1.1%
activity at 5000 µM (PfNT1; PfNT1 oocytes, [test solute]i = 5 mM, normalised to the oocyte type control, read-out: Uptake of [3H]CQ (% PfNT1 control), trans-stimulation): 98 ± 2.2%
activity at 45000 µM (PfNT1; SEM, read-out: Uptake of [3H]CQ (% PfCRTDd2 control), trans-stimulation, PfNT1): 2.2 ± 0.03%
activity at 45000 µM (PfNT1; read-out: Uptake of [3H]CQ (% PfNT1 control), trans-stimulation): 100 ± 2.5%
activity at 5000 µM (PfNT1; [test solute]i = 5 mM (intracellular), mean ± SEM, SEM, read-out: Uptake of [3H]CQ (% PfCRTDd2 control), trans-stimulation, PfNT1): 3.1 ± 0.02%
Tested as potential co-substrate but not required for influx of VF-6 via PfCRT into the oocyte (PfCRT [9]): X
Tested as potential co-substrate but not required for influx of VF-6 via PfCRT into the oocyte (PfCRT [10]): X
